Source: publication PMC9321647, “Curcumin-Based β-Diketo Ligands for Ga^3+: Thermodynamic Investigation of Potential Metal-Based Drugs” (Pharmaceuticals, 2022)

Experiment: Keto-enol/diketo tautomer amounts by 1H NMR
Assay type: physicochemical
Conditions: molar percentage, MeOD-d4, 298 K; for KE (%) amount of keto–enol form: for 2 includes KE form of the Z isomer (6%)
Procedure: NMR spectra were recorded by means of a Bruker Biospin FT-NMR AVANCE III HD (600 MHz) spectrometer equipped with a CryoProbe BBO H&F 5 mm in inverse detection. The nominal frequencies were 150.90 MHz for ^13C and 600.13 MHz for ^1H, respectively. For each sample, 1–5 mg were weighed and diluted up to 0.6 mL with a proper solvent in a 5 mm NMR tube; 90° pulse was calibrated for each sample, and standard NMR parameters were used to achieve quantitative results (relaxation delay, 10 s). Proton and carbon chemical shifts are given in parts per million (ppm) versus external TMS and were determined by reference to the solvent residual signals. Typical 2D homo- and heteronuclear techniques were used for assignment, i.e., ^1H,^1H COSY, ^1H,^13C HSQC, ^1H,^13C HMBC. NMR investigations of Ga^3+:L systems were performed in MeOD-d4 by adding small amounts of a Ga(NO3)3 solution (10 μL each) to 1 mM ligand solution (0.6 mL) until reaching the desired metal-to-ligand molar ratio. The complexation reaction is fast, and spectra were registered few minutes after the addition. Two-dimensional ^1H,^13C heteronuclear multiple bond correlation (HMBC) experiments (hmbcgpndqf in Bruker library) were performed via heteronuclear zero and double quantum coherence, optimized on long-range couplings (^3/4JHC = 8 Hz), with no decoupling during acquisition, and gradient pulses were used for selection. The relative percentages of the isomeric forms were estimated on the basis of the NMR data. Particularly, ^1H NMR spectra were acquired in quantitative conditions being D1 (relaxation delay) at least five times the T1 of the slowest relaxing signal of interest. The raw data were Fourier-transformed, and then the processing was performed by zero filling (SI = TD), line broadening (lb 0.3 Hz), accurate phasing and correcting the baseline. The most isolated signals were selected for integration, i.e., the vinyl protons (H-3 and H-4), and an average of the integrated area (A) of H-3 and H-4 was used for relative quantitation, according to the following equation: %Tautomeri=(A(H−3)i+(A(H−4)i)/2/∑i(A(H−3)i+(A(H−4)i)/2×100

Row | KK (%) amount of diketo form [%] | KE (%) amount of keto–enol form [%] | Compound
1 | 30 | 70 | 2-((4Z,6E)-5-hydroxy-7-(4-hydroxyphenyl)-4-((E)-3-(4-hydroxy-3-ethoxyphenyl) acryloyl) hepta-4,6-dien-1-yl)isoindoline-1,3-dione [Compound 5]
2 | 53 | 47 | COc1cc(/C=C/C(=O)C(CCCN2C(=O)c3ccccc3C2=O)C(=O)/C=C/c2ccc(O)c(OC)c2)ccc1O [Compound 4]
